Data as given in the NIST ThermoML archive (doi:10.1021/je050460d).
Numbers after ± are expanded uncertainties.

Key:
[1] = refractive index (Na D-line) (dimensionless); conditions: 101.33 kPa, Liquid, Standard Abbe refractometry
[2] = 101.33 kPa, Liquid; for viscosity: Capillary tube (Ostwald / Ubbelohde) method; for mass density: Vibrating tube method
[3] = xn = mol fraction of the nth substance listed; conditions: 101 kPa, Liquid, x1 = 1; for viscosity: Capillary tube (Ostwald / Ubbelohde) method; for mass density: Vibrating tube method

| Structure (SMILES) | refractive index ([1]; 298.15 K) | refractive index ([1]; 303.15 K) | refractive index ([1]; 308.15 K) | refractive index ([1]; 313.15 K) | refractive index ([1]; 318.15 K) | refractive index ([1]; 323.15 K) | refractive index ([1]; 328.15 K) | refractive index ([1]; 333.15 K) | refractive index ([1]; 338.15 K) | refractive index ([1]; 343.15 K) | viscosity ([2]; 298.15 K) [mPa·s] | mass density ([2]; 298.15 K) [kg/m3] | mass density ([2]; 303.15 K) [kg/m3] | mass density ([2]; 308.15 K) [kg/m3] | viscosity ([2]; 313.15 K) [mPa·s] | mass density ([2]; 313.15 K) [kg/m3] | mass density ([2]; 318.15 K) [kg/m3] | mass density ([2]; 323.15 K) [kg/m3] | viscosity ([2]; 328.15 K) [mPa·s] | mass density ([2]; 328.15 K) [kg/m3] | further results |
| --- | --- | --- | --- | --- | --- | --- | --- | --- | --- | --- | --- | --- | --- | --- | --- | --- | --- | --- | --- | --- | --- |
| CCCCCCCC[n+]1ccn(C)c1.[Cl-] [1-methyl-3-octylimidazolium chloride] | 1.50987 ± 0.001 | 1.50838 ± 0.001 | 1.50689 ± 0.001 | 1.50543 ± 0.001 | 1.50396 ± 0.001 | 1.5025 ± 0.001 | 1.50103 ± 0.001 | 1.49956 ± 0.001 | 1.4981 ± 0.001 | 1.49664 ± 0.001 | 20883 ± 2800 | 1008.82 ± 2.7 | 1005.94 ± 2.6 | 1003.06 ± 2.6 | 4066 ± 400 | 1000.2 ± 2.6 | 997.37 ± 2.6 | 994.5 ± 2.6 | 1091 ± 78 | 991.67 ± 2.6 | mass density ([2]; 333.15 K): 988.85 ± 2.6 kg/m3; mass density ([2]; 338.15 K): 986.04 ± 2.6 kg/m3; viscosity ([2]; 343.15 K): 387.2 ± 20 mPa·s; mass density ([2]; 343.15 K): 983.24 ± 2.6 kg/m3 |
| CCCCCCn1cc[n+](C)c1.[Cl-] [1-hexyl-3-methylimidazolium chloride] | 1.5172 ± 0.001 | 1.5158 ± 0.001 | 1.51437 ± 0.001 | 1.51294 ± 0.001 | 1.51151 ± 0.001 | 1.51009 ± 0.001 | 1.50868 ± 0.001 | 1.50727 ± 0.001 | 1.50586 ± 0.001 | 1.50445 ± 0.001 | 18089 ± 2400 | 1039.67 ± 2.7 | 1036.81 ± 2.7 | 1033.96 ± 2.7 | 3429 ± 330 | 1031.13 ± 2.7 | 1028.3 ± 2.7 | 1025.49 ± 2.7 | 942.1 ± 65 | 1022.69 ± 2.7 | mass density ([2]; 333.15 K): 1019.89 ± 2.7 kg/m3; mass density ([2]; 338.15 K): 1017.11 ± 2.7 kg/m3; viscosity ([2]; 343.15 K): 339.5 ± 17 mPa·s; mass density ([2]; 343.15 K): 1014.32 ± 2.7 kg/m3 |
| O [water] + CCCCCCCC[n+]1ccn(C)c1.[Cl-] |  |  |  |  |  |  |  |  |  |  |  |  |  |  |  |  |  |  |  |  | viscosity ([3]; 298.15 K): 0.9 ± 0.01 mPa·s; viscosity ([3]; 313.15 K): 0.66 ± 0.01 mPa·s; viscosity ([3]; 328.15 K): 0.52 ± 0.01 mPa·s; mass density ([3]; 328.15 K): 985.68 ± 0.5 kg/m3; viscosity ([3]; 343.15 K): 0.42 ± 0.01 mPa·s; mass density ([3]; 343.15 K): 977.75 ± 0.5 kg/m3 |
| O [water] + CCCCCCn1cc[n+](C)c1.[Cl-] |  |  |  |  |  |  |  |  |  |  |  |  |  |  |  |  |  |  |  |  | viscosity ([3]; 298.15 K): 0.895 ± 0.007 mPa·s; viscosity ([3]; 313.15 K): 0.658 ± 0.006 mPa·s; viscosity ([3]; 328.15 K): 0.519 ± 0.005 mPa·s; mass density ([3]; 328.15 K): 985.68 ± 0.5 kg/m3; viscosity ([3]; 343.15 K): 0.419 ± 0.004 mPa·s; mass density ([3]; 343.15 K): 977.75 ± 0.5 kg/m3 |
